Test results: patent publication US6936628B2, “Oral administration of epothilones” (Bristol-Myers Squibb Company, priority 2002, dated 2005)
Several values for one entry are separate records, joined by “and”; a condition that tells them apart may be missing. Equal values may be shown once.

Legend:
[1] = test system: tubulin isolated from calf brain; format: biochemical
[2] = in vitro; details: human, Caco-2
[3] = cited from earlier work
[4] = test system: Pat-26 human pancreatic carcinoma; details: mouse, in vivo, iv
[5] = test system: human ovarian carcinoma xenograft A2780; assay: Antitumor activity by parenteral administration to rats, A2780 xenograft; format: in vivo, nude rats
Procedure: The required number of animals needed to detect a meaningful response were pooled at the start of the experiment and each was given a subcutaneous implant of a tumor fragment (≈50 mg) with a 13-gauge trocar. For treatment of early-stage tumors, the animals were again pooled before distribution to the various treatment and control groups. For treatment of animals with advanced-stage disease, tumors were allowed to grow to the pre-determined size window (tumors outside the range were excluded) and animals were evenly distributed to various treatment and control groups. Treatment of each animal was based on individual body weight. Treated animals were checked daily for treatment related toxicity/mortality. Each group of animals was weighed before the initiation of treatment (Wt1) and then again following the last treatment dose (Wt2). The difference in body weight (Wt2−Wt1) provides a measure of treatment-related toxicity.
Tumor response was determined by measurement of tumors with a caliper twice a week, until the tumors reach a predetermined “target” size of 1 gm. Tumor weights (mg) were estimated from the formula: Tumor weight=(length×width^2)÷2
Antitumor activity was evaluated at the maximum tolerated dose (MTD) which is defined as the dose level immediately […] which excessive toxicity (i.e. more than one death) occurred. The MTD was frequently equivalent to OD. When death occurred, the day of death was recorded. Treated mice dying prior to having their tumors reach target size were considered to have died from drug toxicity. No control mice died bearing tumors less than target size. Treatment groups with more than one death caused by drug toxicity were considered to have had excessively toxic treatments and their data were not included in the evaluation of a compound's antitumor efficacy.
Tumor response end-point was expressed in terms of tumor growth delay (T−C value), defined as the difference in time (days) required for the treated tumors (T) to reach a predetermined target size compared to those of the control group (C).
To estimate tumor cell kill, the tumor volume doubling time was first calculated with the formula: TVDT=Median time (days) for control tumors to reach target size−Median time (days) for control tumors to reach half the target size and Log cell kill=T−C÷(3.32×TVDT)
Compound A was evaluated versus the human ovarian carcinoma xenograft A2780 grown in nude rats. […] In comparison, Compound B produced 3.3 LCK at its MTD (2.4 mg/kg/inj, IV, every 8 days×2).

[6] = test system: Pat-7 human ovarian carcinoma; details: mouse, in vivo, iv
[7] = test system: HCT116/VM46 human colon carcinoma; parameters: species or system nude mice; details: mouse, in vivo, iv
[8] = test system: A2780Tax human ovarian carcinoma; parameters: species or system nude mice; details: mouse, in vivo, iv
[9] = test system: HCT116/VM46 cells; assay: In vitro cytotoxicity assay (MTS), HCT116/VM46; format: cell-based, human; details: concentration for 50% growth inhibition, HCT116/VM46 versus sensitive HCT116
[10] = test system: Pat-21 paclitaxel resistant breast cancer model; parameters: species or system nude mice; details: mouse, in vivo, iv

With “Epothilone B [BMS-205535 (Epothilone B)]” the “Polymerization Potency, EC0.01” value [1] was 1.8 µM and the “Ratio of Polymerization Potency of Analog/Paclitaxel” value (shortened to “Ratio … of Analog/Paclitaxel”) [1] was 0.3.
With C/C(=C\c1csc(C)n1)[C@@H]1C[C@@H]2O[C@@H]2CCC[C@H](C)[C@H](O)[C@@H](C)C(=O)C(C)(C)[C@@H](O)CC(=O)O1 [BMS-212188 (Epothilone A), Epothilone A] the “Polymerization Potency, EC0.01” value [1] was 2.0 µM and the “Ratio … of Analog/Paclitaxel” value [1] was 0.4.
For CN/C(=N/CCSCc1nc[nH]c1C)NC#N [cimetidine], the Papp [2] is given as 4.9 ×10⁻⁶ cm/s and the “extent of absorption in humans (% absorbed)” value (from here on “extent … (% absorbed)”) [3] is given as 95%.
For C/C(=C\c1csc(C)n1)[C@@H]1C[C@@H]2O[C@]2(C)CCC[C@H](C)[C@H](O)[C@@H](C)C(=O)C(C)(C)[C@@H](O)CC(=O)N1 (relative stereo) [Compound B, [1S-[1R*,3R*(E),7R*,10S*,11R*,16S*]]-7,11-dihydroxy 8,8,10,12,16-pentamethyl-3-[1-methyl-2-(2-methyl-4-thiazolyl)ethenyl-17-oxa-4-azabicyclo[14.1.0]heptadecane-5,9-dione], the “Polymerization Potency, EC0.01” value [1] was 3.5 µM, the “Ratio … of Analog/Paclitaxel” value [1] was 0.4 and the “LCK (gross log cell kill)” value [4] was 1.2 and 1.2^3. It also gave an LCK ([5]; A2780 in nude rats, IV, every 8 days×2, at MTD) of 3.3, an MTD ([5]; nude rats bearing A2780, IV, every 8 days×2) of 2.4 mg/kg/inj and an LCK [6] of 1.9.
With CC(=O)O[C@H]1C(=O)[C@@]2(C)[C@H]([C@H](OC(=O)c3ccccc3)[C@]3(O)C[C@H](OC(=O)[C@H](O)[C@@H](NC(=O)c4ccccc4)c4ccccc4)C(C)=C1C3(C)C)[C@]1(OC(C)=O)CO[C@@H]1C[C@@H]2O [Paclitaxel] the “LCK (gross log cell kill)” value [4] was 0.4, the “LCK (gross log cell kill)” value [7] was 0.55^3 and the “LCK (gross log cell kill)” value [8] was 0.8^3. The “LCK (gross log cell kill)” value [6] was 0.8^3, the “R/S, or resistance ratio” value [9] was 155 fold and the “LCK (gross log cell kill)” value [10] was 0.3^3.
For OC[C@@H](O)[C@@H](O)[C@H](O)[C@H](O)CO [mannitol], the Papp [2] is listed as 3.2 ×10⁻⁶ cm/s and the “extent … (% absorbed)” value [3] is listed as 15%.
In the case of CCCC(=O)Nc1ccc(OCC(O)CNC(C)C)c(C(C)=O)c1 (stereo not drawn) [acebutalol], the “extent … (% absorbed)” value [3] is given as 40%.
